pIC50: −log10 of the molar value.
System: 885724-159-R-J1-PDC KRAS PDC multicell spheroid viability
Experiment: Anticancer human tumor 885724-159-R-J1-PDC patient-derived pancreatic adenocarcinoma cell line growth inhibition [KRAS2]
Conditions: for pIC50: curve of first compound; for viability, T/C: stronger effect = lower value
Outline: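 Combination screen of spheroid viability in tumor-cell co-cultures with endothelial (HUVEC) and mesenchymal stem cell stroma. Each agent was tested in half-log dilutions, topping at clinical Cmax or at 10 microM without a known Cmax.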

[1] = second compound 0.1 µM, first compound 0.000316 µM
[2] = second compound 0.1 µM, first compound 0.001 µM
[3] = second compound 0.1 µM, first compound 0.00316 µM
[4] = second compound 0.1 µM, first compound 0.01 µM
[5] = second compound 0.1 µM, first compound 0.0316 µM
[6] = second compound 0.1 µM, first compound 0.1 µM
[7] = second compound 0.316 µM, first compound 0.000316 µM
[8] = second compound 0.316 µM, first compound 0.001 µM
[9] = second compound 0.316 µM, first compound 0.00316 µM
[10] = second compound 0.316 µM, first compound 0.01 µM
[11] = second compound 0.316 µM, first compound 0.0316 µM
[12] = second compound 0.316 µM, first compound 0.1 µM
[13] = second compound 1 µM, first compound 0.000316 µM
[14] = second compound 1 µM, first compound 0.001 µM
[15] = second compound 1 µM, first compound 0.00316 µM
[16] = second compound 1 µM, first compound 0.01 µM
[17] = second compound 1 µM, first compound 0.0316 µM
[18] = second compound 1 µM, first compound 0.1 µM
[19] = second compound 3.16 µM, first compound 0.000316 µM
[20] = second compound 3.16 µM, first compound 0.001 µM
[21] = second compound 3.16 µM, first compound 0.00316 µM
[22] = second compound 3.16 µM, first compound 0.01 µM
[23] = second compound 3.16 µM, first compound 0.0316 µM
[24] = second compound 3.16 µM, first compound 0.1 µM
[25] = second compound 10 µM, first compound 0.000316 µM
[26] = second compound 10 µM, first compound 0.001 µM
[27] = second compound 10 µM, first compound 0.00316 µM
[28] = second compound 10 µM, first compound 0.01 µM
[29] = second compound 10 µM, first compound 0.0316 µM
[30] = second compound 10 µM, first compound 0.1 µM
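Further: spheroids exposed to agents for 7 days before readout.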

Structure (SMILES)	pIC50 (second compound 0.1 µM)	pIC50 (second compound 0.316 µM)	pIC50 (second compound 1 µM)	pIC50 (second compound 3.16 µM)	pIC50 (second compound 10 µM)	viability, T/C [1] [%]	viability, T/C [2] [%]	viability, T/C [3] [%]	viability, T/C [4] [%]	viability, T/C [5] [%]	viability, T/C [6] [%]	viability, T/C [7] [%]	viability, T/C [11] [%]	viability, T/C [12] [%]	viability, T/C [17] [%]	viability, T/C [18] [%]	viability, T/C [23] [%]	viability, T/C [24] [%]	viability, T/C [29] [%]	viability, T/C [30] [%]	further results
CC(C)n1nc(-c2ccc3oc(N)nc3c2)c2c(N)ncnc21 + COc1cc2nc(C)nc(NC(C)c3cc(N)cc(C(F)(F)F)c3)c2cc1OC1CCOC1	7.77	7.69	7.74	8.12	> 9.50	91.2	76.2	62.7	53.2	47	40.3	90.3	45	39.2	46.9	42	47	42.6	31.4	20.9	viability, T/C [8]: 75.8%; viability, T/C [9]: 66.4%; viability, T/C [10]: 57.2%; viability, T/C [13]: 93%; viability, T/C [14]: 78.8%; viability, T/C [15]: 59.7%; viability, T/C [16]: 56%; viability, T/C [19]: 76.4%; viability, T/C [20]: 69.8%; viability, T/C [21]: 54.8%; viability, T/C [22]: 49.1%; viability, T/C [25]: 36.4%; viability, T/C [26]: 24.9%; viability, T/C [27]: 47.5%; viability, T/C [28]: 39.8%
Cn1ncnc1[C@H]1c2n[nH]c(=O)c3cc(F)cc(c23)N[C@@H]1c1ccc(F)cc1 + C=CC(=O)N1CCN(c2nc(=O)n(-c3c(C)ccnc3C(C)C)c3nc(-c4c(O)cccc4F)c(F)cc23)C(C)C1	< 7.00	< 7.00	< 7.00	< 7.00	< 7.00	105	107	103	110	111	92	118	108	94	104	96.8	108	105	82.2	78.4	viability, T/C [8]: 115%; viability, T/C [9]: 113%; viability, T/C [10]: 113%; viability, T/C [13]: 111%; viability, T/C [14]: 106%; viability, T/C [15]: 117%; viability, T/C [16]: 107%; viability, T/C [19]: 106%; viability, T/C [20]: 108%; viability, T/C [21]: 106%; viability, T/C [22]: 105%; viability, T/C [25]: 89.3%; viability, T/C [26]: 97.4%; viability, T/C [27]: 93%; viability, T/C [28]: 86%
CC1(C)CCC(CN2CCN(c3ccc(C(=O)NS(=O)(=O)c4ccc(NCC5CCOCC5)c([N+](=O)[O-])c4)c(Oc4cnc5[nH]ccc5c4)c3)CC2)=C(c2ccc(Cl)cc2)C1 + C=CC(=O)N1CCN(c2nc(=O)n(-c3c(C)ccnc3C(C)C)c3nc(-c4c(O)cccc4F)c(F)cc23)C(C)C1	5.15	5.15	5.27	5.01	5.26	–	–	–	–	111	118	–	117	114	122	117	109	120	91.1	68.7	viability, T/C (second compound 0.1 µM, first compound 0.316 µM): 114%; viability, T/C (second compound 0.1 µM, first compound 1 µM): 108%; viability, T/C (second compound 0.1 µM, first compound 3.16 µM): 91.2%; viability, T/C (second compound 0.1 µM, first compound 10 µM): 32.3%; viability, T/C (second compound 0.316 µM, first compound 0.316 µM): 111%; viability, T/C (second compound 0.316 µM, first compound 1 µM): 114%; viability, T/C (second compound 0.316 µM, first compound 3.16 µM): 89.3%; viability, T/C (second compound 0.316 µM, first compound 10 µM): 33.8%; viability, T/C (second compound 1 µM, first compound 0.316 µM): 118%; viability, T/C (second compound 1 µM, first compound 1 µM): 112%; viability, T/C (second compound 1 µM, first compound 3.16 µM): 72.8%; viability, T/C (second compound 1 µM, first compound 10 µM): 23.1%; viability, T/C (second compound 3.16 µM, first compound 0.316 µM): 113%; viability, T/C (second compound 3.16 µM, first compound 1 µM): 114%; viability, T/C (second compound 3.16 µM, first compound 3.16 µM): 80.8%; viability, T/C (second compound 3.16 µM, first compound 10 µM): 49.2%; viability, T/C (second compound 10 µM, first compound 0.316 µM): 76.9%; viability, T/C (second compound 10 µM, first compound 1 µM): 77.8%; viability, T/C (second compound 10 µM, first compound 3.16 µM): 65.3%; viability, T/C (second compound 10 µM, first compound 10 µM): 33%

From PubChem BioAssay AID1963861 (Molecular Pharmacology Branch, DTP, NCI, 2024)
